One compound from PMC3705412, “PTP1B Inhibitory and Anti-Inflammatory Effects of Secondary Metabolites Isolated from the Marine-Derived Fungus Penicillium sp. JF-55” (Marine Drugs, 2013) can be followed below.

This experiment relates to iNOS. Put plainly: Western blotting of iNOS protein expression in LPS-stimulated macrophages. Format: cell-based, murine (C57BL/6 mice). Conditions: pre-treatment 12 h, LPS 1 μg/mL 18 h. As for the experimental part:
Figure 3 The effects of penstyrylpyrone (1) (A), anhydrofulvic acid (2) (B), and citromycetin (3) (C) on the protein expression of iNOS and COX-2 in murine peritoneal macrophages stimulated with LPS. Murine peritoneal macrophages were pre-treated for 12 h at the indicated compound concentrations and stimulated for 18 h with LPS (1 μg/mL). Western blotting analysis was performed, and the representative blots of three independent experiments are shown.
C57BL/6 mice were purchased from Orient Bio Co. (Sungnam, Kyung-Kido, Korea). TG-elicited peritoneal macrophages were harvested four days after intraperitoneal (i.p.) injection of 3 mL of TG [37]. Peritoneal lavage was performed using 8 mL of Hanks’ Balanced Salt Solution containing 10 U/mL heparin. The cells were distributed in Roswell Park Memorial Institute medium (RPMI) supplemented with 10% heat-inactivated FBS, in 6-well tissue culture plates (5 × 10^6 cells/mL).
Western blotting analysis was performed by lysing the cells in 20 mM Tris-HCl buffer (pH 7.4) containing a protease inhibitor mixture (0.1 mM PMSF, 5 mg/mL aprotinin, 5 mg/mL pepstatin A, and 1 mg/mL chymostatin). The protein concentration was determined using a Lowry protein assay kit (P5626; Sigma Chemical Co., St. Louis, MO, USA). […]
For orientation: A western blot detects proteins with antibodies after separation by electrophoresis.

For the compound `COc1cc(/C=C/c2ccccc2)oc(=O)c1C` [Penstyrylpyrone (1), penstyrylpyrone], the iNOS expression result was “decreased”.
